Test results taken from ChEMBL document CHEMBL1938228, “Design and synthesis of potent carboxylic acid DGAT1 inhibitors with high cell permeability” (Bioorg Med Chem Lett, 2012).

Legend:
Salmonella typhimurium = test: Induction of mutagenesis in Salmonella Typhimurium TA98 assessed as increase in mutation frequency in presence of liver S9 fraction relative to untreated control; format: toxicity, organism-based; conditions: salmonella enterica subsp. enterica serovar typhimurium
[1] = Aqueous solubility of the compound; format: physicochemical
[2] = Lipophilicity, log D of the compound; format: physicochemical; conditions: octanol/water

| SMILES | fold change (FC) (Salmonella typhimurium) | solubility [1] [µg/mL] | logD [2] |
| --- | --- | --- | --- |
| CC(C)(COc1ccc(-c2ccc(N)cc2)cc1)C(=O)O | 24 | – | – |
| CC(C)(COc1ccc(-c2ccc(N)cc2)cn1)C(=O)O | 2.6 | – | – |
| CC(Sc1nnc(-c2ccc(NC(=O)c3ccccc3)cc2)n1C)C(=O)O (racemic) | – | > 1000 | -0.53 |
